Counter-ions that a name gives are not always drawn.

Series [1] deals with Male Sprague-Dawley rats. Put plainly: Conditioned place preference test (CPP method): potential of test compound and addicting drugs to induce psychological dependence. The format is in vivo, rat. From the text: Effects of 1,4-(diphenylalkyl)piperazine derivatives on the potency of induction of psychological dependence by addicting drugs were studied by using the conditioned place preference test (CPP method) according to the report of Suzuki et al. (Life Science, 57, 1277-1284 (1995)).
Test of Potential to Induce Psychological Dependence of Test Compound and Addicting Drugs
Male Sprague-Dawley rats, body weight: about 250 g, 5.5 weeks old, were used in groups of eight.
An apparatus was used wherein a rectangular parallelepiped box was divided into two compartments at the center in length by a sliding partition and one compartment was made white, while the other compartment was made black.
A test compound and addicting drugs to be used were dissolved in physiological saline.
The solutions of the test compound (0.3 mg/ml, 1 mg/ml and 3 mg/ml solutions) were administered subcutaneously to the rats (1 ml/kg) The solutions of the addicting drugs were administered subcutaneously to morphine administration groups (2 mg/ml, 4 mg/ml and 8 mg/ml solutions of morphine hydrochloride) and intraperitonealy to cocaine administration groups (2 mg/ml, 4 mg/ml and 8 mg/ml solutions of cocaine hydrochloride) and to methamphetamine administration groups (1 mg/ml, 2 mg/ml and 4 mg/ml) (1 ml/kg respectively). Physiological saline was administered by the same method as the method of administration of each administration group (1 ml/kg respectively).
The rats were placed in the box from which the partition had been removed. Each cumulative time the rats had spent in the white compartment and the black compartment respectively was measured for 15 minutes, and the spent time in the compartment where the rats had spent a longer time (pre-value) was determined from a difference between them. This operation was carried out once a day for three days.
The box was divided into two compartments by the partition. The solution of the addicting drug or the solution of the test compound was administered subcutaneously to the rats. The rats were confined for 50 minutes to the compartment in which the rats had spent a shorter time in pre-conditioning. The next day, physiological saline was administered subcutaneously to the rats and, next, the rats were confined for 50 minutes to the compartment in which the rats had spent a longer time. This training was repeated three times (2×3 days).
The partition was removed from the box, and the conditioned rats were placed in the box. Each cumulative time the rats spent in the white compartment and the black compartment respectively was measured for 15 minutes, and the spent time in the compartment where the rats had spent a longer time (post value) was determined from a difference between them.
The cumulative time the rats had spent in the respective compartments was measured by using an infrared sensor.
The potential to induce psychological dependence was evaluated by using CPP scores (sec.) showing a motivational effect of the conditioning drug as an index.
The motivational effects of the addicting drugs and the test compound, which were the conditioning drugs, were determined by the following equation.
CPP score (sec.)=post value (sec.)−pre value (sec.)

The test system of series [2] is Male Sprague-Dawley rats. Put plainly: Conditioned place preference test (CPP method): effect of test compound on potential of addicting drugs to induce psychological dependence. Particulars: for Inhibition rate (%) of CPP score: average of eight. The format is in vivo, rat. From the text: (Life Science, 57, 1277-1284 (1995)). Effect of Test Compound on Potential of Addicting Drugs to Induce Psychological Dependence Male Sprague-Dawley rats, body weight: about 250 g, 5.5 weeks old, were used in groups of eight. An apparatus was used wherein a rectangular parallelepiped box was divided into two compartments at the center in length by a sliding partition and one compartment was made white, while the other compartment was made black. A test compound and addicting drugs to be used were dissolved in physiological saline. The solutions of the test compound (1 mg/ml and 3 mg/ml) were administered subcutaneously to the rats (1 ml/kg). […] The rats were placed in the box from which the partition had been removed. Each cumulative time the rats had spent in the white compartment and the black compartment respectively was measured for 15 minutes, and the spent time in the compartment where the rats had spent a longer time (pre value) was determined from a difference between them. This operation was carried out once a day for three days. The box was divided into two compartments by the partition. The solution of the test compound was administered to the rats, and 30 minutes later, the solution of the addicting drug was further administered to the rats. The rats were confined for 50 minutes to the compartment in which the rats had spent a shorter time in pre-conditioning. The next day, only physiological saline was administered to the rats, and next the rats were confined for 50 minutes to the compartment in which the rats had spent a longer time. This training was repeated three times (2×3 days). The partition was removed from the box, and the conditioned rats were placed in the box. Each cumulative time the rats had spent in the white compartment and the black compartment respectively was measured for 15 minutes, and the spent time in the compartment where the rats had spent a longer time (post value) was determined from a difference between them. The cumulative time the rats had spent in the respective compartments was measured by using an infrared sensor. The potential of the addicting drugs to induce psychological dependence was evaluated by using CPP scores (sec.) showing a motivational effect of the conditioning drug as an index. CPP score (sec.)=post value (sec.)−pre value (sec.) The effects of the test compound on the potential of the addicting drugs to induce psychological dependence was determined by the following equation as inhibition rates (%). Inhibition rate (%)=[(A−B)/A]×100 A: CPP score (sec.) of physiological saline administration group B: CPP score (sec.) of test compound administration group

[3] abbreviates: 2 mg/kg (morphine s.c., cocaine i.p.), average of eight.
The mark [4] stands for this setting: 4 mg/kg (morphine s.c., cocaine i.p.), average of eight.
Setting [5] is: 8 mg/kg (morphine s.c., cocaine i.p.), average of eight.

In the case of `COC(=O)[C@H]1[C@@H](OC(=O)c2ccccc2)C[C@@H]2CC[C@H]1N2C.Cl` [Cocaine, cocaine hydrochloride], the results for the “CPP score” value in the series with Male Sprague-Dawley rats [1] (setting [3]), in the series with Male Sprague-Dawley rats [1] (setting [4]) and in the series with Male Sprague-Dawley rats [1] (setting [5]) were 141 s, 178 s and 259 s, respectively. Also, the “Potential to induce psychological dependence (motivational effect, in words)” value in the series with Male Sprague-Dawley rats [1] (all doses tested) is recorded as “appetitive effects”.
In the case of `COc1ccc(CCN2CCN(CCCc3ccccc3)CC2)cc1OC` [Compound A, 1-[2-(3,4-dimethoxyphenyl)ethyl]-4-(3-phenylpropyl)piperazine dihydrochloride], the “Inhibition rate (%) of CPP score” value with Male Sprague-Dawley rats [2] (Cocaine administration group (cocaine hydrochloride 4 mg/kg i.p.), Compound A 1 mg/kg s.c. 30 min before) came to 26%; with Male Sprague-Dawley rats [2] (Cocaine administration group (cocaine hydrochloride 4 mg/kg i.p.), Compound A 3 mg/kg s.c. 30 min before), 55%; in the series on Male Sprague-Dawley rats [2] (Methamphetamine administration group (methamphetamine hydrochloride 2 mg/kg i.p.), Compound A 1 mg/kg s.c. 30 min before) it was 55%; in the series with Male Sprague-Dawley rats [2] (Methamphetamine administration group (methamphetamine hydrochloride 2 mg/kg i.p.), Compound A 3 mg/kg s.c. 30 min before), 57%; in the series with Male Sprague-Dawley rats [2] (Morphine administration group (morphine hydrochloride 8 mg/kg s.c.), Compound A 1 mg/kg s.c. 30 min before) it was 38%; in the series with Male Sprague-Dawley rats [2] (Morphine administration group (morphine hydrochloride 8 mg/kg s.c.), Compound A 3 mg/kg s.c. 30 min before), 50%. In addition, the “Effect on potential of addicting drugs to induce psychological dependence (in words)” value in the series on Male Sprague-Dawley rats [2] (morphine, cocaine and methamphetamine administration groups, 1 and 3 mg/kg) is “apparently inhibited the potential of the addicting drugs to induce psychological dependence”. The “CPP score” value in the series with Male Sprague-Dawley rats [1] (male, Sprague-Dawley, rat, in vivo, sc, 0.3 mg/kg, 6 days) was -37 s; with Male Sprague-Dawley rats [1] (male, Sprague-Dawley, rat, in vivo, sc, 1 mg/kg, 6 days), -45 s; in the series with Male Sprague-Dawley rats [1] (male, Sprague-Dawley, rat, in vivo, sc, 3 mg/kg, 6 days), -64 s. Besides, the “Potential to induce psychological dependence (motivational effect, in words)” value in the series with Male Sprague-Dawley rats [1] (rat, in vivo) is reported as “no potential to induce psychological dependence”.
With `CN[C@@H](C)Cc1ccccc1.Cl` [Methamphetamine, methamphetamine hydrochloride], the “Potential to induce psychological dependence (motivational effect, in words)” value in the series on Male Sprague-Dawley rats [1] (all doses tested) was “appetitive effects”. The “CPP score” value was found to be 155 s in the series with Male Sprague-Dawley rats [1] (methamphetamine 1 mg/kg i.p., average of eight); 224 s in the series with Male Sprague-Dawley rats [1] (methamphetamine 2 mg/kg i.p., average of eight); 151 s with Male Sprague-Dawley rats [1] (methamphetamine 4 mg/kg i.p., average of eight).
In the case of `CN1CC[C@]23c4c5ccc(O)c4O[C@H]2[C@@H](O)C=C[C@H]3[C@H]1C5.Cl` [Morphine, morphine hydrochloride], the “CPP score” value in the series on Male Sprague-Dawley rats [1] (setting [3]) is 171 s; in the series on Male Sprague-Dawley rats [1] (setting [4]), 187 s; with Male Sprague-Dawley rats [1] (setting [5]) it was 228 s. In the series with Male Sprague-Dawley rats [1] (all doses tested), the “Potential to induce psychological dependence (motivational effect, in words)” value was “appetitive effects”.

(Values after patent publication US6492369B2, “Therapeutic agents for drug dependence” (Santen Pharmaceutical Co., Ltd., priority 1998, dated 2002).)
